Measurements taken from PMC10222203 (Pharmaceutics, 2023).
pIC50: −log10 of the molar value.

Tests used:
dynamin = system: dynamin; design: method as in PMID 16740485, PMID 24491918; settings: cited from earlier work
[1] = system: brain-like endothelial cells (BLECs); experiment: in vitro; settings: control, absence of peptide (0 nM)
Method: The in vitro BBB model, consisting of CD34^+ endothelial cells (ECs) derived from hematopoietic stem cells in co-culture with bovine brain pericytes, was established as described by Cecchelli et al.. Written and informed consent was obtained for the collection of human umbilical cord blood, in compliance with French legislation. […] All experiments were carried out in line with the authorized protocol.
These isolated CD34+ cells were cultured in EGM-2, supplemented with 20% (v:v) FBS and 50 ng/mL vascular endothelial growth factor on 1% (w:v) gelatine-coated 24-well plates (2 × 10^5 cells/well). After 15–20 days, ECs are seen in the culture dish. For each experiment, the cells were expanded in 1% (w:v) gelatine-coated T75 flasks (BD Biosciences, Le Pont-de-Claix, France) in EGM-2. Bovine brain pericytes were isolated and characterized as described by Vandenhaute et al.. Sub-clones were cultured in Dulbecco’s Modified Eagle’s Medium supplemented with 20% (v:v) FBS, 2 mM L-glutamine, 50 µg/mL gentamycin, and 1 ng/mL basic fibroblast growth factor. At confluency, 5 × 10^4 cells were seeded in ECM-5 with 5% (v:v) FBS, 50 µg/mL gentamycin, and 0.5% endothelial cell growth factor in gelatine-coated 12-well plates (Costar, Corning Inc., New York, NY, USA). CD34^+-derived ECs were seeded at 8 × 10^4 cells per Matrigel-coated (BD Biosciences) insert (3401, Corning Inc., NY, USA) and put in co-culture with the bovine brain pericytes, with the pericytes at the bottom of the well, for 6 days to achieve brain-like endothelial cell (BLEC) characteristics (Figure 4b).
At the beginning of the permeability experiments, inserts with BLEC monolayers were transferred to new abluminal (receiver) compartments previously filled with 1.5 mL of RH buffer, and 500 µL of the compounds dissolved in RH buffer, with the addition of the paracellular marker sodium fluorescein (NaFlu), were added to the luminal (donor) compartment. After 3 h of incubation at 37 °C, with a shaking velocity of 60 rpm, aliquots were taken from the donor and receiver compartment. The BLEC monolayers were washed twice with cold RH buffer and lysed with RLT Lysis buffer. The samples were kept at −20 °C pending analysis in low-binding tubes.
An increase in the permeability to NaFlu in the presence of the peptide can indicate an increase in paracellular leakage and consequent loss of barrier integrity. To evaluate the ability of test compounds to cross Matrigel-coated filters without cells and to control for the adsorption to plastics and/or Matrigel, the NaFlu and peptide’s permeability over inserts without cells were also assessed. Mass balance (M.B%) was calculated from the amount of compound recovered in both compartments at the end of the experiment divided by the total amount added to the donor compartment at the start of the experiment.
Samples from both compartments as well as the lysed endothelial cells were analysed for fluorescence using a Synergy H1 (Biotek) set to quantify NaFlu (wavelengths Excitation 490 nm and Emission 525 nm) and with UPLC-MS/MS to assess the permeability and cellular uptake of the peptides. All experiments were performed in triplicate (n = 3 independent experiments per concentration and cCPPs).
Papp is the apparent permeability, J is the rate of appearance of the compound in the receiver compartment (amount/sec), and C0 is the concentration in the donor compartment at the start of the experiment (amount/mL).

SMILES | Decrease in dynamin activity (dynamin; 50 µM) [%] | pIC50 (dynamin) | Permeability (Pe) to sodium fluorescein, mean [1]
O=C(N/N=C/c1ccc(O)c(O)c1)c1cc2ccccc2cc1O [Dynasore, dynasore] | 70 | 4.82 | 
O=C([O-])c1ccccc1-c1c2ccc(=O)cc-2oc2cc([O-])ccc12.[Na+].[Na+] [sodium fluorescein, reference compound] |  |  | 0,46 10‐3 cm/min
